Data published in patent US20230331679A1, “NAPHTHALENE MONOIMIDE COMPOUNDS AND METHODS THEREOF” (JAWAHARLAL NEHRU CENTRE FOR ADVANCED SCIENTIFIC RESEARCH, priority 2020, published 2023).

Tests used:
PC12 cells = test: Rescue of PC12 cells from Aβ42 toxicity (MTT cell viability assay); conditions: PC12 cells, Aβ42 20 µM + compound 40 µM, 24 h; Aβ42 alone 54%, untreated 100%
Procedure: A 96-well plate was used to culture the cells (15,000 per well) with RPMI media (10% fetal bovine serum (FBS), 5% horse serum (HS,), and 1% pen-strep (PS)) at 37° C. temperature in a 5% CO2 atmosphere. Then the media was exchanged with low serum (2% FBS) media and monomeric Aβ42 was added in the absence and presence of NMI compounds and incubated for 24 h.
The structure-activity relationship (SAR) of NMI compounds towards rescuing PC12 cells from Aβ toxicity was investigated. […] Each experiment was repeated three times (n = 3), and error bars represent the standard deviation (SD).
An Alzheimer’s disease-like environment was mimicked by exposing the cultured PC12 cells to 20 µM of Aβ42 fibrils, which formed cytotoxic aggregation species in the growth media.

WT mice = test: LD50 by intraperitoneal injection (OECD guidelines); type: in vivo; conditions: IP injection, survival monitored 14 days
Procedure: (§1) Pharmacokinetics of TGR63 in wild-type (WT) mice was performed to assess its in vivo efficacy. The lethal dose 50 (LD50) of TGR63 was determined in WT mice through intraperitoneal (IP) injection following the Organisation for Economic Cooperation and Development (OECD) guidelines. […] FIG. 7A illustrates the calculation of lethal dose 50% (LD50) of TGR63 through intraperitoneal administration and is represented as table of experimental details and the final observation was done on 14th day. FIG. 7B illustrates the mortality (%) plotted against TGR63 concentration and calculation of LD50. Twenty-five WT mice were segregated in five different groups (G1-5, N= 5 per group) and administered with varying doses of TGR63 (1.7, 5.5, 17.5 56.0 and 179.0 mg/kg body weight, respectively) through IP injection and their survival was monitored for 14 days. The serum stability and blood-brain barrier (BBB) crossing ability of TGR63 were assessed through matrix-assisted laser desorption ionization (MALDI) mass spectrometry analysis of blood and brain samples of vehicle and TGR63 treated mice. […] The partition coefficient (P), a valuable physical property was calculated to predict the BBB permeability. […] The calculated positive logP value predicts the possible BBB crossing ability for TGR63. […]

[1] = Serum stability under in vitro conditions (absorbance); type: in vitro ADME; conditions: WT mouse blood serum, 0.5, 1, 2 and 6 h at 37° C.
APP/PS1 mice = test: Open field (OF) test; type: in vivo; conditions: AD TGR63 cohort
Procedure: In OF test, all the experimental mice were individually allowed to explore a novel platform (45 X 45 cm) and their locomotion activity was monitored for 5 min (Sony HDRCX405 camera) and analyzed using the smart 3 software (Panlab; FIG. 16A). […] The anxiety behaviors of TGR63 treated mice were assessed by the time spent and the entries in the center zone (20 X 20 cm) of OF arena. […] Next, the effect of TGR63 on memory processing, viz., acquisition, consolidation and retrieval were evaluated through NOI test, which has been widely used as a tool to study the neurobiology of memory using the natural tendency of rodents to explore novel objects more than the familiar objects. All the experimental mice were familiarized with two identical objects (familiar objects) in a known habituated arena and allowed to explore a novel and familiar object after 24 and 48 h of familiarization (FIG. 16E). The exploration time with each object was measured using a stopwatch, and the discrimination index (DI) was determined using the formula, (time exploring the novel object - time exploring the familiar) / (time exploring novel + familiar) * 100. […] Similarly, the calculated DI after 48 h was lowest (-7) for AD vehicle cohort compared to both vehicle and TGR63 treated WT cohorts (+43 and +45, respectively) (FIG. 16G). […] The blocking of essential synaptic receptors (NMDA and AMPA) by Aβ aggregation species leading to synaptic dysfunction followed by impairment in hippocampal LTP formation. […] TGR63 treatment ameliorates the memory impairment in APP/PS 1 mice by reducing the toxic amyloid burden from the brain under progressive AD conditions.

[2] = MALDI mass analysis of brain lysate (BBB crossing); type: in vivo; conditions: WT mice, brains collected after 1 h
Procedure: as §1

SHSY5Y cells = test: Membrane toxicity modulation, immunocytochemistry in SHSY5Y cells; type: cell-based; conditions: Aβ42 pre-incubated 24 h with TGR63, 2 h treatment
Procedure: Inspiring from the above-mentioned studies, membrane toxicity modulation ability of TGR63 through immunocytochemistry in SHSY5Y cells was also investigated. The cells were cultured in 35 mm confocal dishes and treated individually with Aβ42 samples, pre-incubated for 24 h in the presence and absence of TGR63 for 2 h under cell growing conditions. Then the experimental cells were washed and fixed using 4% paraformaldehyde (PFA) to probe the Aβ42 fibrils with OC (1:250) antibody, followed by red fluorescent labeled (λex= 633 nm and λem= 650 nm) secondary antibody (Alexa 633-A21052, Thermo). Finally, unbound antibody was washed and 4′,6-diamidino-2-phenylindole (DAPI) was used to stain the nucleus before the confocal imaging. For DAPI staining, experimental cells were incubated with DAPI (500 nM) solution (PBS) for 10 min at room temperature. Then, the cells were washed with PBS three times and imaged under confocal fluorescence microscope (λex= 358 nm, […]). FIG. 5 depicts the images obtained by nuclear staining of SHSY5Y cells with DAPI(blue) and Aβ42 fibrils staining with OC antibody and red fluorescent labelled secondary antibody.

In the case of `CN(C)c1ccc(C#Cc2ccc3c4c(cccc24)C(=O)N(CC[N+](C)(C)C)C3=O)cc1` [TGR63, 2-(6-((4-(dimethylamino)phenyl)ethynyl)-1,3-dioxo-1H-benzo[de]isoquinolin-2(3H)-yl)-N,N,N-trimethylethan-1-aminium], the cell viability (PC12 cells) is reported as 80%, the LD50 (WT mice) is reported as ~ 157.9 mg/kg body weight and the “stability in blood serum (normalized absorbance at 450 nm)” value [1] is reported as “confirmed the stability of TGR63 in blood serum”. For the same molecule, the “total distance traveled (average)” value (APP/PS1 mice; 5 min, AD vehicle 2698.25 cm, WT vehicle 1533.88 cm) was 1515.33 cm, the “distance traveled in the center zone (average)” value (APP/PS1 mice; AD vehicle 243.0 cm) was 98.14 cm and the “number of entries into the center zone” value (APP/PS1 mice; AD vehicle ~20) was ~ 9 entries. For the same molecule, the “BBB crossing ability (MALDI of brain lysate)” value [2] was “confirmed BBB crossing ability of TGR63” and the “OC red fluorescence signal of Aβ42 fibrils on plasma membrane” value (SHSY5Y cells) was “lower red fluorescence signal on the plasma membrane”.
